# Results as given in ChEMBL document CHEMBL3045025, “Exploring structural requirement and binding interactions of -amyloid cleavage enzyme inhibitors using molecular modeling techniques” (Med Chem Res, 2013).
# Target: Beta-secretase 1 (Homo sapiens, UniProt P56817)
# Assay: Inhibition of BACE (unknown origin)
# Beta-secretase 1, sequence (P56817 whole entry): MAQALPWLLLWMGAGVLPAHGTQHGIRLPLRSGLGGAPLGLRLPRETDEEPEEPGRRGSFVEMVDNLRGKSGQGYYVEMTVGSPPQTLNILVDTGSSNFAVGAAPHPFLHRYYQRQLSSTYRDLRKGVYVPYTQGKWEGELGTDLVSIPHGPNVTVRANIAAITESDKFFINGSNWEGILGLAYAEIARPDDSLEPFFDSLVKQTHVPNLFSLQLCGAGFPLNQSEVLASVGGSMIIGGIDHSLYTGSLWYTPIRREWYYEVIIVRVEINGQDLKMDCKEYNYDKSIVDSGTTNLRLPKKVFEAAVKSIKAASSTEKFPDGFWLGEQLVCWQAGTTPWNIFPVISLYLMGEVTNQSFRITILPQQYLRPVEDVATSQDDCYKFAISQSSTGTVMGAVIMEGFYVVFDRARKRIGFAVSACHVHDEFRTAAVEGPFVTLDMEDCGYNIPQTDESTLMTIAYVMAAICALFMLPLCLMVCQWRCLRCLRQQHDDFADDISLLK
row,Compound,Ki [µM]
1,CC(C)C[C@H](NCC(=O)[C@H](CC(N)=O)NC(=O)OC(C)(C)C)[C@@H](O)C[C@@H](C)C(=O)N[C@@H](C)C(=O)NCc1ccccc1,22.4
2,CC(C)C[C@H](NCC(=O)[C@@H](CCS(C)(=O)=O)NC(=O)[C@@H](NC(=O)OC(C)(C)C)C(C)C)[C@@H](O)C[C@@H](C)C(=O)N[C@@H](C(=O)NCc1ccccc1)C(C)C,8
3,CSCC[C@@H](NC(=O)[C@@H](NC(=O)OC(C)(C)C)C(C)C)C(=O)CN[C@@H](CC(C)C)[C@@H](O)C[C@@H](CC(C)C)C(=O)N[C@@H](C(=O)NCc1ccccc1)C(C)C,10.5
4,CC(C)C[C@H](NCC(=O)[C@H](CC(N)=O)NC(=O)OC(C)(C)C)[C@@H](O)C[C@@H](C)C(=O)N[C@H](C(=O)NCc1ccccc1)C(C)C,3.13
5,CC(C)C[C@H](NCC(=O)[C@H](CS(C)(=O)=O)NC(=O)OC(C)(C)C)[C@@H](O)C[C@@H](C)C(=O)N[C@H](C(=O)NCc1ccccc1)C(C)C,1.13
6,CSCC[C@@H](NC(=O)OC(C)(C)C)C(=O)CN[C@@H](CC(C)C)[C@@H](O)C[C@@H](C)C(=O)N[C@H](C(=O)NCc1ccccc1)C(C)C,5.81

# Now from value to molecule:
row,Ki [µM],Compound
1,61.4,CC(C)C[C@H](NCC(=O)[C@H](CC(N)=O)NC(=O)[C@@H](NC(=O)OC(C)(C)C)C(C)C)[C@@H](O)C[C@@H](C)C(=O)N[C@@H](C)C(=O)NCc1ccccc1
2,5.9,CC(C)C[C@H](NCC(=O)[C@H](CC(N)=O)NC(=O)[C@@H](NC(=O)OC(C)(C)C)C(C)C)[C@@H](O)C[C@@H](C)C(=O)N[C@@H](C(=O)NCc1ccccc1)C(C)C
3,50.1,CSC[C@@H](NC(=O)[C@@H](NC(=O)OC(C)(C)C)C(C)C)C(=O)CN[C@@H](CC(C)C)[C@@H](O)C[C@@H](C)C(=O)N[C@H](C(=O)NCc1ccccc1)C(C)C
4,9.4,CC(C)C[C@H](NCC(=O)[C@H](CS(C)(=O)=O)NC(=O)[C@@H](NC(=O)OC(C)(C)C)C(C)C)[C@@H](O)C[C@@H](C)C(=O)N[C@@H](C(=O)NCc1ccccc1)C(C)C
5,2.5,"CSCC[C@@H](NC(=O)[C@@H](NC(=O)OC(C)(C)C)C(C)C)C(=O)CN[C@@H](CC(C)C)[C@@H](O)C[C@@H](C)C(=O)NC(C(=O)NCc1ccccc1)C(C)C (single isomer, unassigned)"
